From ChEMBL document CHEMBL1201862, “PubChem BioAssay data set” (2004)
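Results reflect a 48-hour exposure of cells in 96-well plates to compound at five concentrations. GI50 marks 50% less growth.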 Activity calls are given as the source filed them. No stated cut-off is given here; in the data, active = GI50 up to about 1.1 µM and inactive = higher.

Experiments:
Assay in all cases: DTP human tumour cell line panel, 48 h
SNB-19 = system: SNB-19
SR = system: SR
Malme-3M = system: Malme-3M
OVCAR-8 = system: OVCAR-8
OVCAR-5 = system: OVCAR-5
SW-620 = system: SW-620
RPMI-8226 = system: RPMI-8226
UACC-257 = system: UACC-257
LOX IMVI = system: LOX IMVI
MDA-N = system: MDA-N
A549 = system: A549
MDA-MB-231 = system: MDA-MB-231
NCI-H522 = system: NCI-H522
T47D = system: T47D
HOP-62 = system: HOP-62
NCI-H226 = system: NCI-H226
MCF7 = system: MCF7
EKVX = system: EKVX
A498 = system: A498
SF-539 = system: SF-539

| Compound | GI50 (SNB-19) | GI50 (SR) | GI50 (Malme-3M) | GI50 (OVCAR-8) | GI50 (OVCAR-5) | GI50 (SW-620) | GI50 (RPMI-8226) | GI50 (UACC-257) | GI50 (LOX IMVI) | GI50 (MDA-N) | GI50 (A549) | GI50 (MDA-MB-231) | GI50 (NCI-H522) | GI50 (T47D) | GI50 (HOP-62) | GI50 (NCI-H226) | GI50 (MCF7) | GI50 (EKVX) | GI50 (A498) | GI50 (SF-539) |
| --- | --- | --- | --- | --- | --- | --- | --- | --- | --- | --- | --- | --- | --- | --- | --- | --- | --- | --- | --- | --- |
| Cc1[nH]c2ccccc2c1-c1cc(-c2cc(-c3c(C)[nH]c4ccccc34)nc(N)n2)nc(N)n1 | > 100 µM (inactive) | 86.3 µM (inactive) | > 100 µM (inactive) | > 100 µM (inactive) | > 100 µM (inactive) | > 100 µM (inactive) | > 100 µM (inactive) | > 100 µM (inactive) | > 100 µM (inactive) | > 100 µM (inactive) | > 100 µM (inactive) | > 100 µM (inactive) | 51.8 µM (inactive) | > 100 µM (inactive) | > 100 µM (inactive) | 37.2 µM (inactive) | > 100 µM (inactive) | > 100 µM (inactive) | > 100 µM (inactive) | > 100 µM (inactive) |
| CC[n+]1c(/C=C/c2ccc(N(CCCl)CCCl)cc2)ccc2cc(NC(=O)/C=C/c3ccccc3)ccc21 | 0.393 µM (active) | 0.189 µM (active) | 0.291 µM (active) | 0.406 µM (active) | 0.748 µM (active) | 0.208 µM (active) | 0.218 µM (active) | 0.787 µM (active) | 0.329 µM (active) | 0.6 µM (active) | 0.279 µM (active) | 0.32 µM (active) | 0.218 µM (active) | 0.249 µM (active) | 0.318 µM (active) | 0.456 µM (active) | 0.139 µM (active) | 0.927 µM (active) | 10.3 µM (inactive) | 0.308 µM (active) |
| O=C1CCCCCC1CC(Sc1ccccc1)Sc1ccccc1 (centres undefined) | > 100 µM (inactive) | 32.8 µM (inactive) | > 100 µM (inactive) | > 100 µM (inactive) | > 100 µM (inactive) | 98.2 µM (inactive) | 37.6 µM (inactive) | 59.8 µM (inactive) | > 100 µM (inactive) | > 100 µM (inactive) | 39.8 µM (inactive) | > 100 µM (inactive) | 65.3 µM (inactive) | 14.4 µM (inactive) | > 100 µM (inactive) | > 100 µM (inactive) | 72.3 µM (inactive) | > 100 µM (inactive) | > 100 µM (inactive) | > 100 µM (inactive) |
| COC(=O)CCC(NC(=O)OC(C)(C)C)C(=O)NC(Cc1ccc(NC(=O)CCCC(C)=O)cc1)C(=O)NC(CCC(=O)OC)C(=O)OC (centres undefined) | > 100 µM (inactive) | > 100 µM (inactive) | > 100 µM (inactive) | > 100 µM (inactive) | > 100 µM (inactive) | > 100 µM (inactive) | > 100 µM (inactive) | > 100 µM (inactive) | > 100 µM (inactive) | > 100 µM (inactive) | > 100 µM (inactive) | > 100 µM (inactive) | > 100 µM (inactive) | > 100 µM (inactive) | > 100 µM (inactive) | > 100 µM (inactive) | > 100 µM (inactive) | > 100 µM (inactive) | > 100 µM (inactive) | > 100 µM (inactive) |
| O=C1C(Br)=C(c2ccccc2)C(c2ccccc2)=C1c1ccccc1 | 11.4 µM (inactive) | 0.979 µM (active) | 1.75 µM (inactive) | 2.04 µM (inactive) | 12 µM (inactive) | 1.77 µM (inactive) | 1.45 µM (inactive) | 3.35 µM (inactive) | 1.33 µM (inactive) | 2.98 µM (inactive) | 13.1 µM (inactive) | 1.79 µM (inactive) | 0.753 µM (active) | 2.37 µM (inactive) | 14.2 µM (inactive) | 8.43 µM (inactive) | 2.4 µM (inactive) | 8.75 µM (inactive) | 16.1 µM (inactive) | 3.01 µM (inactive) |
| O=C(NCCNCCNCCNC(=O)c1cc(-c2ccccc2)nc2ccccc12)c1cc(-c2ccccc2)nc2ccccc12 | 3.79 µM (inactive) | 2.02 µM (inactive) | 1.87 µM (inactive) | 2.08 µM (inactive) | 1.87 µM (inactive) | 1.83 µM (inactive) | 2.45 µM (inactive) | 1.72 µM (inactive) | 1.56 µM (inactive) | 1.6 µM (inactive) | 5.83 µM (inactive) | 2.96 µM (inactive) | 1.67 µM (inactive) | 2.68 µM (inactive) | 2.51 µM (inactive) | 2.64 µM (inactive) | 2.04 µM (inactive) | 5.96 µM (inactive) | 3.16 µM (inactive) | 2.08 µM (inactive) |
| CCN(CC)CCC1CCCCN1CC(=O)N1c2ccccc2NC(=O)CC1C (centres undefined) | > 100 µM (inactive) | > 100 µM (inactive) | > 100 µM (inactive) | > 100 µM (inactive) | > 100 µM (inactive) |  | > 100 µM (inactive) | > 100 µM (inactive) | > 100 µM (inactive) | > 100 µM (inactive) | > 100 µM (inactive) | > 100 µM (inactive) | > 100 µM (inactive) | > 100 µM (inactive) | > 100 µM (inactive) | > 100 µM (inactive) | > 100 µM (inactive) | > 100 µM (inactive) | > 100 µM (inactive) | > 100 µM (inactive) |
